This note sets out measurements from patent publication US10004701B2, “Methods and compositions for treating infection” (UNIVERSITY OF ROCHESTER, priority 2012, dated 2018).

What all share (assay): AK assay 384-well format, Prestwick library screening
For one assay, the system named is E. faecium. It counts as cell-based, Enterococcus faecium. As to conditions: 50 μM final drug concentration; for fold induction at 50 µM: Enterococcus faecium, 3 h.
Another assay deals with K. pneumoniae. It counts as cell-based, Klebsiella pneumoniae. The note with it: 50 μM final drug concentration; for fold induction at 50 µM: Klebsiella pneumoniae, 3 h.
For assay [1], the system named is S. aureus strain USA300-0114. It counts as cell-based, Staphylococcus aureus. The note with it: 50 μM final drug concentration; for fold induction at 50 µM: Staphylococcus aureus, USA300, 3 h.
A further assay has as its system E. coli. The assay is classed as cell-based, Escherichia coli. The note with it: 50 μM final drug concentration; for fold induction at 50 µM: Escherichia coli, 3 h.
The next assay has as its system P. aeruginosa. It counts as cell-based, Pseudomonas aeruginosa. As to conditions: 50 μM final drug concentration; for fold induction at 50 µM: Pseudomonas aeruginosa, 3 h.
For assay [2], the system named is A. baumannii strain 98-37-09. It counts as cell-based, Acinetobacter baumannii. As to conditions: 50 μM final drug concentration; for fold induction at 50 µM: Acinetobacter baumannii, 983709, 3 h.
For another assay, the system named is E. cloacae. The assay is classed as cell-based, Enterobacter cloacae. The note with it: 50 μM final drug concentration; for fold induction at 50 µM: Enterobacter cloacae, 3 h.
[3] abbreviates: planktonic, cutoff for positive-scoring molecules 3-fold increase.
The mark [4] stands for this setting: planktonic E. faecium, 384-well, cutoff for positive-scoring molecules 3-fold increase, read-out: AK-based Prestwick Library Screening Results: E. faecium (increase in extracellular AK activity).
Where [5] appears, read: planktonic K. pneumoniae, 384-well, cutoff for positive-scoring molecules 3-fold increase, read-out: AK-based Prestwick Library Screening Results: K. pneumoniae (increase in extracellular AK activity).
Where [6] appears, read: planktonic S. aureus, 384-well, cutoff for positive-scoring molecules 3-fold increase, read-out: AK-based Prestwick Library Screening Results: S. aureus (increase in extracellular AK activity).
Where [7] appears, read: planktonic E. coli, 384-well, cutoff for positive-scoring molecules 3-fold increase, read-out: AK-based Prestwick Library Screening Results: E. coli (increase in extracellular AK activity).
Where [8] appears, read: planktonic P. aeruginosa, 384-well, cutoff for positive-scoring molecules 3-fold increase, read-out: AK-based Prestwick Library Screening Results: P. aeruginosa (increase in extracellular AK activity).
The mark [9] stands for this setting: planktonic A. baumannii, 384-well, cutoff for positive-scoring molecules 3-fold increase, read-out: AK-based Prestwick Library Screening Results: A. baumannii (increase in extracellular AK activity).
Setting [10] is: planktonic E. cloacae, 384-well, cutoff for positive-scoring molecules 3-fold increase, read-out: AK-based Prestwick Library Screening Results: E. cloacae (increase in extracellular AK activity).
Setting [11] is: 384-well format, cutoff for positive-scoring molecules 3-fold increase, read-out: AK-based Prestwick Library Screening Results, E. faecium (increase in extracellular AK activity).
[12] abbreviates: 384-well format, cutoff for positive-scoring molecules 3-fold increase, read-out: AK-based Prestwick Library Screening Results, K. pneumoniae (increase in extracellular AK activity).
The mark [13] stands for this setting: 384-well format, cutoff for positive-scoring molecules 3-fold increase, read-out: AK-based Prestwick Library Screening Results, S. aureus (increase in extracellular AK activity).
Where [14] appears, read: 384-well format, cutoff for positive-scoring molecules 3-fold increase, read-out: AK-based Prestwick Library Screening Results, E. coli (increase in extracellular AK activity).
Where [15] appears, read: 384-well format, cutoff for positive-scoring molecules 3-fold increase, read-out: AK-based Prestwick Library Screening Results, P. aeruginosa (increase in extracellular AK activity).
Where [16] appears, read: 384-well format, cutoff for positive-scoring molecules 3-fold increase, read-out: AK-based Prestwick Library Screening Results, A. baumannii (increase in extracellular AK activity).
Where [17] appears, read: 384-well format, cutoff for positive-scoring molecules 3-fold increase, read-out: AK-based Prestwick Library Screening Results, E. cloacae (increase in extracellular AK activity).

Counter-ions that a name gives are not always drawn. Like-named read-outs stand apart in the source and are kept apart here.

On to `CO[C@@H]1C=C2CCN(C)[C@@H]2C2c3cc4c(cc3C(=O)OC21)OCO4.O=[N+]([O-])O` (stereo partly drawn) [Ungerine nitrate], for which the “AK-based Prestwick Library Screening Results, E. faecium (fold increase in extracellular AK activity)” value in the assay with E. faecium (setting [3]) worked out at 1.0. Moreover, in the assay with K. pneumoniae (setting [3]), the “AK-based Prestwick Library Screening Results, K. pneumoniae (fold increase in extracellular AK activity)” value was 1.0. For the same compound, in assay [1] (setting [3]), the “AK-based Prestwick Library Screening Results, S. aureus (fold increase in extracellular AK activity)” value is on record as 1.2. In addition, in the assay with E. coli (setting [3]), the “AK-based Prestwick Library Screening Results, E. coli (fold increase in extracellular AK activity)” value stood at 1.3. The “AK-based Prestwick Library Screening Results, P. aeruginosa (fold increase in extracellular AK activity)” value with P. aeruginosa (setting [3]) stood at 1.1. For the same compound, the “AK-based Prestwick Library Screening Results, A. baumannii (fold increase in extracellular AK activity)” value in assay [2] (setting [3]) worked out at 1.1. Moreover, in the assay on E. cloacae (setting [3]), the “AK-based Prestwick Library Screening Results, E. cloacae (fold increase in extracellular AK activity)” value is on record as 1.4.

Take `Cc1cc(CC(=O)O)n(C)c1C(=O)c1ccc(Cl)cc1` [Zomepirac sodium salt]: the fold induction at 50 µM with E. faecium (cutoff for positive-scoring molecules 3-fold increase, read-out: AK-based Prestwick Library Screening Results, E. faecium (fold increase in extracellular AK activity)) was 1.1; in the assay with K. pneumoniae (cutoff for positive-scoring molecules 3-fold increase, read-out: AK-based Prestwick Library Screening Results, K. pneumoniae (fold increase in extracellular AK activity)), 1; in assay [1] (cutoff for positive-scoring molecules 3-fold increase, read-out: AK-based Prestwick Library Screening Results, S. aureus (fold increase in extracellular AK activity)), 0.9; with E. coli (cutoff for positive-scoring molecules 3-fold increase, read-out: AK-based Prestwick Library Screening Results, E. coli (fold increase in extracellular AK activity)), 1.1; in the assay on P. aeruginosa (cutoff for positive-scoring molecules 3-fold increase, read-out: AK-based Prestwick Library Screening Results, P. aeruginosa (fold increase in extracellular AK activity)) it was 0.9; in assay [2] (cutoff for positive-scoring molecules 3-fold increase, read-out: AK-based Prestwick Library Screening Results, A. baumannii (fold increase in extracellular AK activity)), 1.1. Moreover, the fold induction at 50 µM with E. cloacae (cutoff for positive-scoring molecules 3-fold increase, read-out: AK-based Prestwick Library Screening Results, E. cloacae (fold increase in extracellular AK activity)) was found to be 1.6.

With `CCN(CC)CCCC(C)Nc1c2ccc(Cl)cc2nc2ccc(OC)cc12` (stereo not drawn) [Quinacrine dihydrochloride dihydrate], the fold induction at 50 µM was 1 with E. faecium (setting [4]); 1 in the assay with K. pneumoniae (setting [5]); 1.2 in assay [1] (setting [6]); 1.2 with E. coli (setting [7]); 0.9 in the assay on P. aeruginosa (setting [8]); 1.3 in assay [2] (setting [9]). Besides, in the assay with E. cloacae (setting [10]), the fold induction at 50 µM was 1.4.

As to `CCCc1ncc(C[n+]2ccccc2C)c(N)n1` [Amprolium hydrochloride], the fold induction at 50 µM turned out to be 0.9 in the assay on E. faecium (setting [11]); 0.6 in the assay on K. pneumoniae (setting [12]); 0.5 in assay [1] (setting [13]); 0.5 with E. coli (setting [14]); 0.4 in the assay on P. aeruginosa (setting [15]); 0.5 in assay [2] (setting [16]). For the same compound, in the assay with E. cloacae (setting [17]), the fold induction at 50 µM was determined as 0.4.

Consider `O=C1C(CC[S+]([O-])c2ccccc2)C(=O)N(c2ccccc2)N1c1ccccc1` (stereo not drawn) [Sulfinpyrazone], for which the fold induction at 50 µM in the assay on E. faecium (setting [4]) was determined as 1.1; with K. pneumoniae (setting [5]) it was 1; in assay [1] (setting [6]), 3.5; in the assay on E. coli (setting [7]), 1.3; in the assay with P. aeruginosa (setting [8]) it was 1; in assay [2] (setting [9]) it was 1.2. For the same compound, the fold induction at 50 µM with E. cloacae (setting [10]) came to 1.2.

With `CC(=O)[C@H]1CC[C@H]2[C@@H]3CCC4=CC(=O)CC[C@]4(C)[C@H]3CC[C@]12C` [Progesterone], the fold induction at 50 µM is 1.1 with E. faecium (planktonic, cutoff for positive 3-fold increase, read-out: AK-based Prestwick Library Screening Results, E. faecium (fold increase in extracellular AK activity)); 1.1 in the assay with K. pneumoniae (planktonic, cutoff for positive 3-fold increase, read-out: AK-based Prestwick Library Screening Results, K. pneumoniae (fold increase in extracellular AK activity)); 1.1 in assay [1] (planktonic, cutoff for positive 3-fold increase, read-out: AK-based Prestwick Library Screening Results, S. aureus (fold increase in extracellular AK activity)); 1 with E. coli (planktonic, cutoff for positive 3-fold increase, read-out: AK-based Prestwick Library Screening Results, E. coli (fold increase in extracellular AK activity)); 1 with P. aeruginosa (planktonic, cutoff for positive 3-fold increase, read-out: AK-based Prestwick Library Screening Results, P. aeruginosa (fold increase in extracellular AK activity)); 1.1 in assay [2] (planktonic, cutoff for positive 3-fold increase, read-out: AK-based Prestwick Library Screening Results, A. baumannii (fold increase in extracellular AK activity)). Moreover, the fold induction at 50 µM in the assay with E. cloacae (planktonic, cutoff for positive 3-fold increase, read-out: AK-based Prestwick Library Screening Results, E. cloacae (fold increase in extracellular AK activity)) was 1.7.

Turning to Dihydroergotoxine mesylate, the “AK-based Prestwick Library Screening Results, E. faecium (increase in extracellular AK activity)” value in the assay on E. faecium (planktonic E. faecium, cutoff for positive-scoring molecules 3-fold increase) is on record as 0.8. In addition, the “AK-based Prestwick Library Screening Results, K. pneumoniae (increase in extracellular AK activity)” value with K. pneumoniae (planktonic K. pneumoniae, cutoff for positive-scoring molecules 3-fold increase) is given as 0.5. Moreover, in assay [1] (planktonic S. aureus, cutoff for positive-scoring molecules 3-fold increase), the “AK-based Prestwick Library Screening Results, S. aureus (increase in extracellular AK activity)” value came out at 0.4. In addition, the “AK-based Prestwick Library Screening Results, E. coli (increase in extracellular AK activity)” value in the assay on E. coli (planktonic E. coli, cutoff for positive-scoring molecules 3-fold increase) came out at 0.6. The “AK-based Prestwick Library Screening Results, P. aeruginosa (increase in extracellular AK activity)” value in the assay with P. aeruginosa (planktonic P. aeruginosa, cutoff for positive-scoring molecules 3-fold increase) came out at 0.4. The “AK-based Prestwick Library Screening Results, A. baumannii (increase in extracellular AK activity)” value in assay [2] (planktonic A. baumannii, cutoff for positive-scoring molecules 3-fold increase) was determined as 0.5. The “AK-based Prestwick Library Screening Results, E. cloacae (increase in extracellular AK activity)” value in the assay on E. cloacae (planktonic E. cloacae, cutoff for positive-scoring molecules 3-fold increase) turned out to be 0.6.

With `NC[C@H]1CC[C@H](C(=O)O)CC1` [Tranexamic acid], the fold induction at 50 µM in the assay with E. faecium (setting [11]) turned out to be 1.1; in the assay on K. pneumoniae (setting [12]), 0.7; in assay [1] (setting [13]), 0.7; in the assay with E. coli (setting [14]), 0.8; in the assay on P. aeruginosa (setting [15]), 0.9; in assay [2] (setting [16]) it was 0.8. Besides, the fold induction at 50 µM in the assay with E. cloacae (setting [17]) stood at 0.9.

Take `CCOc1ccc2c(c1)C(C)=CC(C)(C)N2` [Ethoxyquin]: the fold induction at 50 µM in the assay on E. faecium (planktonic, cutoff for positive-scoring molecules 3-fold increase, read-out: AK-based Prestwick Library Screening Results, E. faecium (fold increase in extracellular AK activity)) was found to be 0.9; with K. pneumoniae (planktonic, cutoff for positive-scoring molecules 3-fold increase, read-out: AK-based Prestwick Library Screening Results, K. pneumoniae (fold increase in extracellular AK activity)), 0.9; in assay [1] (planktonic, cutoff for positive-scoring molecules 3-fold increase, read-out: AK-based Prestwick Library Screening Results, S. aureus (fold increase in extracellular AK activity)) it was 1.1; in the assay on E. coli (planktonic, cutoff for positive-scoring molecules 3-fold increase, read-out: AK-based Prestwick Library Screening Results, E. coli (fold increase in extracellular AK activity)) it was 1.1; with P. aeruginosa (planktonic, cutoff for positive-scoring molecules 3-fold increase, read-out: AK-based Prestwick Library Screening Results, P. aeruginosa (fold increase in extracellular AK activity)) it was 1.1; in assay [2] (planktonic, cutoff for positive-scoring molecules 3-fold increase, read-out: AK-based Prestwick Library Screening Results, A. baumannii (fold increase in extracellular AK activity)), 0.9. Moreover, in the assay with E. cloacae (planktonic, cutoff for positive-scoring molecules 3-fold increase, read-out: AK-based Prestwick Library Screening Results, E. cloacae (fold increase in extracellular AK activity)), the fold induction at 50 µM worked out at 1.4.
